# Target: CREB-binding protein (Homo sapiens, UniProt Q92793)
# Assay: In Vitro Enzyme Inhibition Assay-CREBBP Inhibition: Determination of the IC50 for the CREBBP inhibitors disclosed herein was performed as follows: CREBBP was cloned and expressed in E. Coli as His-tag protein and purified by Nickel affinity and gel-filtration chromatography. The protein was further characterized as a single band with the correct molecular weight by SDS-PAGE. CREBBP binding and inhibition was assessed by monitoring the interaction of biotinylated H4-tetraacetyl peptide (AnaSpec, H4K5/8/12/16(Ac), biotin-labeled) with the target using the AlphaScreen technology (Perkin Elmer). In a 384-well ProxiPlate CREBBP (50 nM final) was combined with peptide (20 nM final) in 50 mM HEPES (pH 7.3), 10 mM NaCl, 0.25 mM TCEP, 0.1% (w/v) BSA, and 0.005% (w/v) Brij-35 either in the presence of DMSO (final 0.4% DMSO) or compound dilution series in DMSO. After 20-minute incubation at room temperature, Alpha streptavidin donor beads and Nickel Chelate acceptor beads were added to a final concentration of 5 μg/mL. After two hours of equilibration, plates were read on an Envision instrument and the IC50 was calculated using a four parameter non-linear curve fit.The ability of the compounds disclosed herein to inhibit CBP activity was quantified and the respective IC50 value was determined.
# Sequence of CREB-binding protein (Q92793 whole entry): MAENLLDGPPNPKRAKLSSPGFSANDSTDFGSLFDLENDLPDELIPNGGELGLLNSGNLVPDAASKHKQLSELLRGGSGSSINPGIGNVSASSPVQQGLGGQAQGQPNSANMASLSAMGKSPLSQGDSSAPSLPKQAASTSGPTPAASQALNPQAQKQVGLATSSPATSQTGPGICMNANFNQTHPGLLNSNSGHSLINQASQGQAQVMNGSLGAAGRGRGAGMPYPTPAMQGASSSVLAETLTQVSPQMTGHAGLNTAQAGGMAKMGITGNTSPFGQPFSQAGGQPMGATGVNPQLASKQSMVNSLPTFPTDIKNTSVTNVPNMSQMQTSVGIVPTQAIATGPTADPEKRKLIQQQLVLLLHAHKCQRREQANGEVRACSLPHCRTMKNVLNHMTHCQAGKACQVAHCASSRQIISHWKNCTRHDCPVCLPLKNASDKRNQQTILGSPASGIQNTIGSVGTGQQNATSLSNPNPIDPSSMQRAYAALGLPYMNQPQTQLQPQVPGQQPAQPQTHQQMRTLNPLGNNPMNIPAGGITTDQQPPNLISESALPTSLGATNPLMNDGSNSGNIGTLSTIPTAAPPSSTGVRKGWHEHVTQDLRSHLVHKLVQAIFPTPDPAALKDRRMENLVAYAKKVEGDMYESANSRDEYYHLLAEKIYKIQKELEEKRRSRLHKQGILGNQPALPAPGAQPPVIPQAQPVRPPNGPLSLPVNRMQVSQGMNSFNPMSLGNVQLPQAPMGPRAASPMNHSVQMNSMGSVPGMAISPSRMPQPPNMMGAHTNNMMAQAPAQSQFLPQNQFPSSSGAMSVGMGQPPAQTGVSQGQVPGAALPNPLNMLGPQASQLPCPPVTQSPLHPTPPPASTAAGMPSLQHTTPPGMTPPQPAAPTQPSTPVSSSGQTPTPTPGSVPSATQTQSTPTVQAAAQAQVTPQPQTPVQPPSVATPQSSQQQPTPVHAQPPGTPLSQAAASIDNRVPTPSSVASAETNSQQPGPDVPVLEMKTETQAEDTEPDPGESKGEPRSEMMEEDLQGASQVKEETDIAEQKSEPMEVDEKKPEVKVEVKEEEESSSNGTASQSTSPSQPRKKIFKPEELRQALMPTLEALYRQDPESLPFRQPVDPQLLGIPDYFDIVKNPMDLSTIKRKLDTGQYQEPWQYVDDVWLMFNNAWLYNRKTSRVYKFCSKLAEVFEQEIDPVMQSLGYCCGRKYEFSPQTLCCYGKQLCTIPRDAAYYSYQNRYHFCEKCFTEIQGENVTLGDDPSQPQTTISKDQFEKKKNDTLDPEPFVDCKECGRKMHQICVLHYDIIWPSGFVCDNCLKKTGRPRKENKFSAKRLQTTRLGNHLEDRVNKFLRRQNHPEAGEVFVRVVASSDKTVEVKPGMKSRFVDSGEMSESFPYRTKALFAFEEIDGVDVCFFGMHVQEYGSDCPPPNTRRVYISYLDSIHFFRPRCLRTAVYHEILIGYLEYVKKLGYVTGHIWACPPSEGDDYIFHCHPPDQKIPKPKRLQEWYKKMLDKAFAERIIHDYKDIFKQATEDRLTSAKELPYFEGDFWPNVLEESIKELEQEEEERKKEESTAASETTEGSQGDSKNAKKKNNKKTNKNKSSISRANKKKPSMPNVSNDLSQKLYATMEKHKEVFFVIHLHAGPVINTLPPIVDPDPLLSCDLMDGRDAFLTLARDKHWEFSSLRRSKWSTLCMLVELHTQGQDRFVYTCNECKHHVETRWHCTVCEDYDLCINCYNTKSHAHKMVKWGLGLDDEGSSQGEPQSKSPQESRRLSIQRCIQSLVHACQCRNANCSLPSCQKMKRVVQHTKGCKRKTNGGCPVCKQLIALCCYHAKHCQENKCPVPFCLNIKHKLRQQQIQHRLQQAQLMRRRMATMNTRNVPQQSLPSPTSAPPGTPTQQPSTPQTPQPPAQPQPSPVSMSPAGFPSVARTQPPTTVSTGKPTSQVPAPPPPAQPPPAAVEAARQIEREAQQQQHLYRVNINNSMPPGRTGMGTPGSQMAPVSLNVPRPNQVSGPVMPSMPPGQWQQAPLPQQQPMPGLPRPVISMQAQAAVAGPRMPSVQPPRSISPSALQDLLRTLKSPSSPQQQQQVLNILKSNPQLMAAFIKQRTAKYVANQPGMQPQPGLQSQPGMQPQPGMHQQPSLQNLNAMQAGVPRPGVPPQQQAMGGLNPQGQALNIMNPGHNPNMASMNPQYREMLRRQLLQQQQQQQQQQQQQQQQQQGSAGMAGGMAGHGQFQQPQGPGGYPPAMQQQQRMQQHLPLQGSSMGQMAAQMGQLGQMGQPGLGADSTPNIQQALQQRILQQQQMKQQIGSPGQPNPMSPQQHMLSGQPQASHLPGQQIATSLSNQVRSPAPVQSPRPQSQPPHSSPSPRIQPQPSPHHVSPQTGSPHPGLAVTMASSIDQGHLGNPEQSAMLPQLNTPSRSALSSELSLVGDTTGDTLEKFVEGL
row,SMILES,IC50
1,Cc1cccc(Cl)c1Oc1nc(NS(=O)(=O)C(C)C)cc(-c2cc(Cl)c(=O)n(C)c2)n1,< 500 nM
2,CCCCS(=O)(=O)Nc1cc(-c2cc(Cl)c(=O)n(C)c2)nc(Oc2c(C)cccc2Cl)n1,< 500 nM
3,CCNc1cc(-c2cc(C)c(=O)n(C)c2)nc(Oc2ccc(F)cc2F)n1,< 500 nM
4,CCCCS(=O)(=O)Nc1nc(Oc2c(C)cccc2C)nc(-c2cc(C)c(=O)n(C)c2)n1,< 500 nM

# Other lines, results leading:
row,IC50,SMILES
1,< 500 nM,Cc1cccc(F)c1Oc1nc(NS(=O)(=O)CC2CC2)cc(-c2ccc(=O)n(C)c2)n1
2,< 500 nM,Cc1cccc(F)c1Oc1nc(NS(=O)(=O)CCC(F)(F)F)cc(-c2ccc(=O)n(C)c2)n1
3,< 500 nM,Cc1cccc(F)c1Oc1nc(NS(=O)(=O)CCC2CC2)cc(-c2ccc(=O)n(C)c2)n1
